Data: PubChem BioAssay AID1645863 (Buhrlage Lab, Dana-Farber Cancer Institute and Novartis …, 2021)
Activity calls are given as the source filed them. The rule behind the calls is not given here.

target: Ubiquitin carboxyl-terminal hydrolase 10 (Homo sapiens) (UniProt Q14694); assay: primary hit verification, biochemical, ubiquitin-specific protease 10 deubiquitylase inhibitors, concentration-effect titration (AID 1645863); details: USP10 deubiquitinase enzymatic assay;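 note: potency values describe inhibition of USP10 cleavage of a fluorogenic ubiquitin substrate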
Sequence (Q14694 whole entry, looked up): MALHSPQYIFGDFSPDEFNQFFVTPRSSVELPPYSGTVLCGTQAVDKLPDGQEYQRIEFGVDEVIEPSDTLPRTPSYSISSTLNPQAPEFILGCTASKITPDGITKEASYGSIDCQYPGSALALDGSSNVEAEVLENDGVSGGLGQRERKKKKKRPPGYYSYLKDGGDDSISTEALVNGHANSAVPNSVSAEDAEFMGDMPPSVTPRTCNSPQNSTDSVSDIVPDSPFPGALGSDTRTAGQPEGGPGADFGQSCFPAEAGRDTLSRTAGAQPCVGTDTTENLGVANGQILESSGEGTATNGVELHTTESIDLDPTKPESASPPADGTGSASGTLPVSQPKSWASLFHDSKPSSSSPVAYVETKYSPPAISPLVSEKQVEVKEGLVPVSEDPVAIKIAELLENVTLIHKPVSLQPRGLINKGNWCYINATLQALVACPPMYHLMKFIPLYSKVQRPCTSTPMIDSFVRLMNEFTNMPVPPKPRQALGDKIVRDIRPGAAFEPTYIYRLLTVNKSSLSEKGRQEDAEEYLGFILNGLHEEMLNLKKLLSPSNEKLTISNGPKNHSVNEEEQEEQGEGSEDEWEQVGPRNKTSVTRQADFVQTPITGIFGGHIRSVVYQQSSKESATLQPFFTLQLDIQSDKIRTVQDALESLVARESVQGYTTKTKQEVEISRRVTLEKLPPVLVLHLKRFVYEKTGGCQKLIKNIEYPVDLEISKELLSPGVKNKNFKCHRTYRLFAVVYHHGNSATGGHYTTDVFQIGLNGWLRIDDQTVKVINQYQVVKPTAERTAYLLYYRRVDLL

SMILES	IC50
CC(=O)O[C@@H](C/C=C(\C)C(=O)O)[C@@H](C)[C@H]1C[C@H](OC(C)=O)[C@@]2(C)C3=CC[C@H]4C(C)(C)[C@H](O)CC[C@]4(C)C3=CC[C@]12C	18 µM
CC(OC(=O)c1cc(S(=O)(=O)Nc2ccccc2F)ccc1Cl)C(=O)Nc1ccc([N+](=O)[O-])cc1C(F)(F)F (stereo not given)	16 µM
O=C1CSC(c2ccc(F)cc2)c2c(n(C3CCCCCC3)[nH]c2=O)N1 (stereo not given)	32.4 µM
FC(F)(F)c1ccc(Nc2nnnc3ccccc23)cc1	16.6 µM
C=C[C@]1(C)CC[C@]2(C)[C@@H](C1)[C@@H](O)C[C@H]1[C@]3(C)CCC[C@@]12OC3=O	> 40 µM (inactive)
O=C(COC(=O)c1ccc(NS(=O)(=O)c2ccc(F)c(F)c2)cc1)Nc1ccc(OCc2ccccc2)cc1	20.9 µM
COc1c2nc3ccccc3oc-2cc(=O)c1OC	> 40 µM (inactive)
O=C1CC(c2cc3c(cc2Br)OCO3)c2cc3c(cc2N1)OCCO3 (stereo not given)	> 40 µM (inactive)
COc1ccc(NC(=O)Cn2c(=O)n(CCCC(=O)NC3CCCC3)c(=O)c3cc(Cl)ccc32)c(OC)c1	27.8 µM
Cc1cc(-c2nnc(SCC(=O)Nc3ccc(Br)c(C)c3)n2N)n[nH]1	> 40 µM (inactive)
Cc1ccc(S(=O)(=O)Nc2cccc(Cl)c2)cc1NC(=O)CCC(=O)c1ccc(Cl)cc1	> 40 µM (inactive)
COc1ccc(Sc2nc3ccccc3n3cnnc23)cc1	> 40 µM (inactive)
O=C1c2c(O)c(Cl)cc3c2[C@@]2(Oc4ccc(O)c5c4[C@]3(O2)[C@@H]2O[C@@H]2C5=O)[C@@H]2O[C@H]12	1.31 µM
CC(C)CC(=O)Nc1cc(F)c2nc(N3CCOCC3)ccc2c1	> 40 µM (inactive)
COc1ccc(NC(=O)CNC(=O)c2ccc3nc(-n4cccc4)sc3c2)cc1	> 40 µM (inactive)
COc1cccc(-c2cc(C(=O)Nc3cc(C)n(Cc4ccc(Cl)cc4)n3)no2)c1	> 40 µM (inactive)
O=C(Nc1cc(S(=O)(=O)Nc2ccc(Cl)cc2)ccc1O)c1cc2c(s1)CCC2	10.3 µM
Cc1ccc(Nc2nc(O)c(CC(=O)Nc3ccccc3C)s2)cc1C	> 40 µM (inactive)

The remaining lines, values ahead:

IC50	SMILES
> 40 µM (inactive)	Cc1ccc(CS(=O)(=O)c2cn(CC(=O)NCCc3ccccc3)c3ccccc23)cc1
> 40 µM (inactive)	COc1ccccc1CNC(=O)Cn1cnc2c(-c3ccccc3)csc2c1=O
> 40 µM (inactive)	O=C(c1ccco1)N1CCC2(CC1)CC1(CO2)Nc2ccccc2-n2cccc21 (stereo not given)
> 40 µM (inactive)	O=C(c1cccnc1)N1CCCC(Cc2cc(-c3ncc[nH]3)ncn2)C1 (stereo not given)
34.8 µM	Cc1cc(NS(=O)(=O)c2ccc(NC(=O)c3ccc(N4CCCC4)c([N+](=O)[O-])c3)cc2)no1
> 40 µM (inactive)	Cc1ccc(CNC(=O)c2cccc(N3C(=O)N4CCc5c([nH]c6ccccc56)[C@@]4(C)C3=O)c2)cc1
16.8 µM	O=C(Cn1c(=O)c2sccc2n(CC(=O)OCc2ccccc2)c1=O)NCc1ccccc1Cl
14 µM	CCCc1cc(=O)n2[nH]c(COc3ccccc3)c(-c3ccccc3)c2n1
27.4 µM	NS(=O)(=O)c1cccc(NC(=O)/C=C/c2cn(-c3ccccc3)nc2-c2cccc([N+](=O)[O-])c2)c1
> 40 µM (inactive)	O=C(Nc1ccc(Cn2cnc(-c3nc(-c4ccccc4)no3)c2)cc1)c1ccccc1F
> 40 µM (inactive)	Cc1cccc(N2CCN(C(=O)c3nc4cccnc4n(C)c3=O)CC2)c1C
> 40 µM (inactive)	c1ccc(CNc2ccc(-c3ccccc3)nn2)cc1
> 40 µM (inactive)	CCCn1c(=O)c2sccc2n2c(CCC(=O)N3CCc4ccccc4C3)nnc12
37.7 µM	Nc1ccc(C(=O)OCC(=O)NC2CCCc3ccccc32)cc1[N+](=O)[O-] (stereo not given)
> 40 µM (inactive)	O=C(COc1cccc(-c2noc(-c3ccc([N+](=O)[O-])cc3)n2)c1)Nc1ccccc1
> 40 µM (inactive)	COc1cc(NC(=O)c2ccc3c(c2)OCO3)ccc1-c1cc2ccccc2oc1=O
> 40 µM (inactive)	COc1ccc(-c2noc(C3(c4ccc(F)cc4)CCOCC3)n2)cc1
